The source of these data is patent US5444056A, “Aminoalkoxyphenyl derivatives, process for their preparation and compositions containing them” (Sanofi, priority 1989, dated 1995).

As usually defined, the inhibition in vivo is the drop in the measured response relative to a control, in per cent.

Assay [1] deals with contractile response to potassium-induced depolarization on isolated rat aorta. In words: Calcium inhibitory properties: antagonism of contractile response to potassium-induced depolarization on isolated rat aorta. On the set-up: species or system rat (male Wistar). The note with it: percent of maximal contraction before incubation, 60 min. From the text: It is well established that the depolarization of a smooth muscle membrane by potassium makes the latter permeable to extracellular calcium and induces muscle contraction. Consequently, the measurement of inhibition of the contractile response to depolarization by potassium or the measurement of relaxation of the tonic contraction on potassium depolarization can provide an evaluation of the potency of a compound as an inhibitor of the membrane permeability to Ca^++ ions. The technique used is the following: The aorta is removed from male Wistar rats weighing about 300 g and cut into strips approximately 40 mm long and 3 mm wide. These fragments are placed in a 25 ml isolated organ bath containing modified Krebs-bicarbonate solution (112 mM NaCL; 5 mM KCl; 25 mM NaHCO3; 1 mM KH2 PO4; 1.2 mM MgSO4; 2.5 mM CaCl2; 11.5 mM glucose, made up to 1000 ml with distilled water) maintained at 37° C. and through which a stream of carbon dioxide is passed. The preparation is connected to a force microsensor and the contractile response is recorded after amplification on a recorder. A tension of 2g is applied to the preparation. This latter is maintained in the modified Krebs-bicarbonate solution for 60 minutes, and then contractions are induced by replacing the Krebsbi-carbonate solution by a Krebs-potassium solution (17 mM NaCl; 100 mM KCl; 25 mM NaHCO3; 1 mM KH2 PO4; 1.2 mM MgSO4; 2.5 mM CaCl2; 11.5 mM glucose; made up to 1000 ml with distilled water). When the contractile response of the preparation has become reproducible, a given amount of the compound of the invention is introduced into the bath. Sixty minutes later a new spasm is induced by potassium depolarization. The results obtained on the aorta under investigation are then expressed in percent of the maximal contractional effect before incubation with the test substance. As examples, the following results were obtained, the compounds of formula (1) being in the form of the free base, the hydrochloride, oxalate or fumarate.

The subject of assay [2] is acceleration of the heart rate induced by isoprenaline (anti-β effect). Briefly: Anti-β effect: reduction of isoprenaline-induced acceleration of the heart rate in anesthetized atropinized dog. Format: in vivo. On the set-up: key to Anti-β effect: +: for a reduction <50%; ++: for a reduction ≥50%; +++: for an almost complete reduction. The procedure: The aim of this test is to determine the capacity of the compounds of the invention to reduce the increase in blood pressure induced by epinephrine (anti-αeffect) and the acceleration of the heart rate induced by isoprenaline (anti-βeffect) in the dog previously anesthetized with pentobarbital and atropinized.
(§1) First, are determined for each dog the dose of epinephrine (between 3 and 10 μg/kg) which causes a reproducible increase in arterial blood pressure of about 133.10^2 Pa and the dose of isoprenaline (1 to 2 μg/kg) which causes a reproducible increase in the heart rate of about 70 beats/minute. The doses of epinephrine and isoprenaline thus determined are injected alternatively every ten minutes and after the two consecutive reference responses have been obtained, a quantity of the test compound is administered by the intravenous route.
The percentage reduction of the acceleration of the heart rate caused by the test compound compared with the reference tachycardia previously measured (about 70 beats) is recorded.
In both cases, the results of the reduction in arterial pressure and heart rate are expressed as follows: […]

The test system of assay [3] is increase in blood pressure induced by epinephrine (anti-α effect). Briefly: Anti-α effect: reduction of epinephrine-induced increase in blood pressure in anesthetized atropinized dog. In kind it is in vivo. Set-up: key: +: for a reduction <50%; ++: for a reduction ≥50%; +++: for an almost complete reduction. On the procedure: as §1, with “The aim of this test is to determine the capacity of the compounds of the invention to reduce the increase in blood pressure induced by epinephrine (anti-αeffect) and the acceleration of the heart rate induced by isoprenaline (anti-βeffect) in the dog previously anesthetized with pentobarbital and atropinized. First,” for “First,”, “route. The percentage reduction of the hypertension caused by the test compound in comparison with the reference hypertension previously obtained (about 100 mm Hg) is recorded. In both cases, the results of the reduction in arterial pressure and heart rate are expressed as follows: […]” for “route.”

Structures can show the parent of a compound that is named as a salt.

For `COc1ccc(CCN(C)CCCOc2ccc(S(=O)(=O)c3c(C(C)C)c4ccccc4n3CCCN(C)CCc3ccc(OC)c(OC)c3)cc2)cc1OC` [Ex. 10, 2-{4-[3-(N-methyl N-3,4-dimethoxy-β-phenethylamino)propoxy]benzenesulfonyl} 1-[3-(N-methyl N-3,4-dimethoxy-β-phenethylamino)propyl] 3-isopropyl indole dioxalate], the “% maximal contractional effect” value is 78,9% in assay [1] (10^-7 M, 0.1 µM) and 90,2% in assay [1] (10^-8 M, 0.01 µM). The Anti-β effect result in assay [2] (intravenous, 4,9 mg/kg) is recorded as “+++”. The Anti-α effect result in assay [3] (intravenous, 4,9 mg/kg) is “+++”.
Take `COc1ccc(CCN(C)CCCOc2ccc(S(=O)(=O)c3c(C(C)C)cn4cccc(C)c34)cc2)cc1OC` [Ex. 15, 2-isopropyl 8-methyl 1-{4-[3-(N-methyl N-3,4-dimethoxy-β-phenethylamino)propoxy]benzenesulfonyl}indolizine hydrogen oxalate]: the “% maximal contractional effect” value is 11,1% in assay [1] (10^-8 M, 0.01 µM); 41,0% in assay [1] (10^-9 M, 0.001 µM); 85,2% in assay [1] (10^-10 M, 0.0001 µM). Also, in assay [2] (Canis lupus familiaris, intravenous, 0,013 mg/kg), the inhibition in vivo at 0.013 mg/kg is < 50%. Moreover, the Anti-α effect result in assay [3] (intravenous, 0,013 mg/kg) was “++ (for a reduction ≥50%)”.
In the case of `COc1ccc(CCN(C)CCCOc2ccc(S(=O)(=O)c3c(C(C)C)nn4c(C)cccc34)cc2)cc1OC` [Ex. 50, 3-{4-[3-(N-methyl N-3,4-dimethoxy-β-phenethylamino)propoxy]benzenesulfonyl} 2-isopropyl 7-methyl pyrazolo[1,5-a]pyridine hydrogen oxalate], the “% maximal contractional effect” value in assay [1] (10^-8 M, 0.01 µM) is listed as 29,1%; in assay [1] (10^-9 M, 0.001 µM), 65,6%; in assay [1] (10^-10 M, 0.0001 µM), 86,3%. Also, in assay [2] (intravenous, 0,13 mg/kg), the Anti-β effect result is recorded as “+++”. In assay [3] (intravenous, 0,13 mg/kg), the Anti-α effect entry is “+++”.
For `COc1ccc(CCN(C)CCCOc2ccc(S(=O)(=O)c3c(C(C)C)c4cccc(C)c4n3C)cc2)cc1OC` [Ex. 55, 2-{4-[3-(N-methyl N-3,4-dimethoxy-β-phenethylamino)propoxy]benzenesulfonyl} 3-isopropyl 1,7-dimethyl indole hydrogen oxalate], the “% maximal contractional effect” value in assay [1] (10^-7 M, 0.1 µM) was 45,8%; in assay [1] (10^-8 M, 0.01 µM), 56,4%; in assay [1] (10^-9 M, 0.001 µM) it was 79%; in assay [1] (10^-10 M, 0.0001 µM), 85,7%. Also, the Anti-β effect entry in assay [2] (intravenous, 0,07 mg/kg) is reported as “+++”. Moreover, the Anti-α effect entry in assay [3] (intravenous, 0,07 mg/kg) was “+++”.
Turning to `COc1ccc2c(c1)c(C(C)C)c(S(=O)(=O)c1ccc(OCCCN(C)CCc3ccc(OC)c(OC)c3)cc1)n2C` [Ex. 61, 2-{4-[3-(N-methyl N-3,4-dimethoxy-β-phenethylamino)propoxy]benzenesulfonyl} 3-isopropyl 5-methoxy 1-methyl indole hydrogen fumarate], the “% maximal contractional effect” value is listed as 15,7% in assay [1] (10^-7 M, 0.1 µM); 31,2% in assay [1] (10^-8 M, 0.01 µM); 71,4% in assay [1] (10^-9 M, 0.001 µM); 89,5% in assay [1] (10^-10 M, 0.0001 µM). For the same compound, in assay [2] (Canis lupus familiaris, intravenous, 0,035 mg/kg), the inhibition in vivo at 0.035 mg/kg was ≥ 50%. Besides, the Anti-α effect entry in assay [3] (intravenous, 0,035 mg/kg) is on record as “+++”.
`COc1ccc2[nH]c(S(=O)(=O)c3ccc(OCCCN(C)CCc4ccc(OC)c(OC)c4)cc3)c(C(C)C)c2c1` [Ex. 62, 2-{4-[3-(N-methyl N-3,4-dimethoxy-β-phenethylamino)propoxy]benzenesulfonyl} 3-isopropyl 5-methoxy indole hydrogen oxalate]: the “% maximal contractional effect” value is 37,1% in assay [1] (10^-7 M, 0.1 µM); 48,7% in assay [1] (10^-8 M, 0.01 µM); 93,7% in assay [1] (10^-9 M, 0.001 µM); 90,3% in assay [1] (10^-10 M, 0.0001 µM). The inhibition in vivo at 1 mg/kg in assay [2] (Canis lupus familiaris, intravenous, 1 mg/kg) is ≥ 50%. The Anti-α effect entry in assay [3] (intravenous, 1 mg/kg) is “+++”.
As to `COc1ccc(CCN(C)CCCOc2ccc(S(=O)(=O)c3c(C(C)C)n(C)c4cccc(C)c34)cc2)cc1OC` [Ex. 65, 3-{4-[3-(N-methyl N-3,4-dimethoxy-β-phenethylamino)propoxy]benzenesulfonyl} 2-isopropyl 1,4-dimethyl indole hydrogen oxalate], the “% maximal contractional effect” value in assay [1] (10^-7 M, 0.1 µM) was 14,3%; in assay [1] (10^-8 M, 0.01 µM), 29,9%; in assay [1] (10^-9 M, 0.001 µM), 76,1%; in assay [1] (10^-10 M, 0.0001 µM), 83,5%. The Anti-β effect result in assay [2] (intravenous, 0,1 mg/kg) is listed as “+++”. In addition, the Anti-α effect result in assay [3] (intravenous, 0,1 mg/kg) is recorded as “+++”.
Take `CCCCN(CCCC)CCCOc1ccc(S(=O)(=O)c2c(C(C)C)n(C)c3cccc(C)c23)cc1.O=C(O)C(=O)O` [Ex. 66, 3-{4-[3-(di-n-butylamino)propoxy]benzenesulfonyl} 2-isopropyl 1,4-dimethyl indole hydrogen oxalate]: the “% maximal contractional effect” value in assay [1] (10^-7 M, 0.1 µM) was 7,1%; in assay [1] (10^-8 M, 0.01 µM), 37,1%; in assay [1] (10^-9 M, 0.001 µM) it was 83,1%. Further, the Anti-β effect entry in assay [2] (intravenous, 0,05 mg/kg) is “+++”. The Anti-α effect entry in assay [3] (intravenous, 0,05 mg/kg) is “+++”.
With `COc1cc(CCN(C)CCCOc2ccc(S(=O)(=O)c3c(C(C)C)cn4cccc(C)c34)cc2)cc(OC)c1` [Ex. 76, 1-{4-[3-(N-methyl N-3,5-dimethoxy-β-phenethylamino)propoxy]benzenesulfonyl} 2-isopropyl 8-methyl indolizine], the “% maximal contractional effect” value in assay [1] (10^-8 M, 0.01 µM) was 12,7%; in assay [1] (10^-9 M, 0.001 µM) it was 41,8%; in assay [1] (10^-10 M, 0.0001 µM), 64,1%. Moreover, the Anti-β effect result in assay [2] (intravenous, 0,013 mg/kg) is listed as “+++”. In assay [3] (intravenous, 0,013 mg/kg), the Anti-α effect result is “+++”.
